Assay results as given in ChEMBL document CHEMBL1152634, “Synthesis and evaluation of novel alpha-heteroaryl-phenylpropanoic acid derivatives as PPARalpha/gamma dual agonists” (Bioorg Med Chem, 2009).

Key:
[1] = AUC in rat at 1 mg/kg, iv; format: ADME, organism-based; design: dose 1 mg/kg, route intravenous; details: plasma
[2] = Half life in rat at 1 mg/kg, iv; format: ADME, organism-based; design: dose 1 mg/kg, route intravenous; details: in vivo
[3] = AUC in dog at 3 mg/kg, po; format: ADME, organism-based, Canis lupus familiaris; design: dose 3 mg/kg, route oral; details: plasma
[4] = Clearance in rat at 1 mg/kg, iv; format: ADME, organism-based; design: dose 1 mg/kg, route intravenous; details: in vivo
[5] = Volume of distribution at steady state in dog at 1 mg/kg, iv; format: ADME, organism-based, Canis lupus familiaris; design: dose 1 mg/kg, route intravenous; details: in vivo, read-out: Vdss
[6] = AUC in rat at 3 mg/kg, po; format: ADME, organism-based; design: dose 3 mg/kg, route oral; details: plasma
[7] = AUC in dog at 1 mg/kg, iv; format: ADME, organism-based, Canis lupus familiaris; design: dose 1 mg/kg, route intravenous; details: plasma
[8] = Volume of distribution at steady state in rat at 1 mg/kg, iv; format: ADME, organism-based; design: dose 1 mg/kg, route intravenous; details: in vivo, read-out: Vdss
[9] = Oral bioavailability in dog at 3 mg/kg, po; format: ADME, organism-based, Canis lupus familiaris; details: in vivo
[10] = Oral bioavailability in rat at 3 mg/kg, po; format: ADME, organism-based; details: in vivo
[11] = Half life in dog at 1 mg/kg, iv; format: ADME, organism-based, Canis lupus familiaris; design: dose 1 mg/kg, route intravenous; details: in vivo
[12] = Clearance in dog at 1 mg/kg, iv; format: ADME, organism-based, Canis lupus familiaris; design: dose 1 mg/kg, route intravenous; details: in vivo

## Cc1oc(-c2ccccc2)nc1CCCc1ccc(C[C@@H](C(=O)O)n2nccn2)cc1
[1]
  AUC: 928 ng·h/mL
[2]
  half-life: 7.5 h
[3]
  AUC: 13000 ng·h/mL
[4]
  clearance: 18 mL/min/kg
[5]
  Vd: 0.82 L/kg
[6]
  AUC: 1170 ng·h/mL
[7]
  AUC: 3970 ng·h/mL
[8]
  Vd: 2.9 L/kg
[9]
  bioavailability: > 95%
[10]
  bioavailability: 42%
[11]
  half-life: 5.8 h
[12]
  clearance: 4.4 mL/min/kg
